Reference: article PMC4492822 (EMBO Molecular Medicine, 2015)

What was measured:
[1] = system: Twist1/Kras^G12D lung tumors; experiment: Twist1/KrasG12D autochthonous lung tumor model, hypofractionated radiation (SABR); assay type: in vivo, mouse
Protocol: (§1) Inducible Twist1/Kras^G12D transgenic mice in the FVB/N inbred background were of the genotype: CCSP-rtTA/tetO-KrasG12D/Twist1-tetO-luc (Tran et al, [2012]). All the mice were weaned 3–4 weeks of age and then placed on dox at 4–6 weeks of age. Mice were treated with similar levels of tumor burden per micro-CT and were typically 20–30 weeks old. Mice were treated as in Fig6C and H. Each group consisted of mice, of which multiple index tumors were followed in time by micro-CT and quantified by a board-certified radiation oncologist (JZ) in a blinded fashion. Bi-dimensional measurements were made on tumors using serial examinations and tumor volumes calculated using the equation Volume = π/6 × 1.65 (length × width) × 3/2. Volumes were normalized to the starting volume, t = 0 before treatment. For 15-Gy SABR experiments, the breakdown of animal usage is (1) RT = 3 female mice, (2) RK-33 = 3 females and 1 male mice, (3) carboplatin = 3 male mice, (4) RT + carboplatin = 3 female mice, and (5) RT + RK-33 = 5 female mice. For the 3-Gy XRT experiments, animals used were (1) RT = 3 female and three male mice and (2) RT + RK-33 = four female and three male mice.
(§2) Cells were irradiated at room temperature with 0.5 Gy/min to the desired dose using a Gammacell 40 ^137Cs irradiator. For in vivo experiments, mice were treated using the Small Animal Radiation Research Platform (Wong et al, [2008]). The tumors were irradiated with a circular beam of 1 cm diameter.
The mice underwent micro-CT imaging by use of the Small Animal Radiation Research Platform (SARRP) irradiator described earlier (Wong et al, [2008]). The uncollimated primary beam was used for imaging. A total of 1,800 projections were acquired at approximately 0.2 angular increments. The Feldkamp CBCT algorithm was used for reconstruction. Tumor volumes were quantified from the CT dataset with Pinnacle3 software v.8.1y (Philips Inc, Madison, WI) as described previously (Tran et al, [2011]; Zeng et al, [2013]). Briefly, we viewed 2D images in sagittal, coronal, and transverse views to detect tumors and track them over time. […]

A549 cells = experiment: Colony-forming assay with γ-radiation; assay type: cell-based, human; conditions: 1 μM and 2 μM, added 4 h before radiation
Protocol: as §2
Cells were counted, plated, and allowed to attach overnight. RK-33 at specified doses was added 4 h before radiation was delivered. Colonies were stained and counted approximately 10 days after irradiation. Surviving fraction was calculated by dividing the number of colonies formed by the number of cells plated times the plating efficiency. Curves were fitted with a quadratic polynomial equation. P-values were determined by the extra sum of square F-test.

[2] = system: Twist1/Kras^G12D lung tumors; experiment: Twist1/KrasG12D lung tumor model, fractionated radiation (10 fractions of 3 Gy); assay type: in vivo, mouse; conditions: 3 weeks following treatment
Protocol: as §1, with “For the 3-Gy XRT experiments, animals used were (1) RT = 3 female and three male mice and (2) RT + RK-33 = four female and three male mice.” left out
The mice underwent micro-CT imaging by use of the Small Animal Radiation Research Platform (SARRP) irradiator described earlier (Wong et al, [2008]). […] Tumor volumes were quantified from the CT dataset with Pinnacle3 software v.8.1y (Philips Inc, Madison, WI) as described previously (Tran et al, [2011]; Zeng et al, [2013]). […]

[3] = system: preclinical breast and sarcoma models; experiment: Single agent activity in preclinical breast and sarcoma models; assay type: in vivo; conditions: authors' response to reviewers
Excerpt: EMBO Molecular Medicine Peer Review Process File - EMM-2014-04368 levels vary based on the datasets analyzed. In addition, as far as DDX3 protein levels are concerned, […]
making it difficult to interpret the gene expression datasets as an absolute unit to that of the protein […]
3) A more detailed description of expression in other normal tissues would help anticipate toxicities.
Response: It is difficult to ascertain if the levels of DDX3 in the normal cells will directly correlate to toxicities levels following RK-33 treatment. It is possible that normal cells are not dependent on DDX3 for its cellular biogenesis as compared to the cancer cells. This could be one of the reasons why there is no observable toxicity within our experimental setting. Also, as a first step to determine toxicity for a novel drug, it is essential to test the effect in small animals like mouse or rat. Based on these criteria, we observed no toxicity in mouse at higher levels than the therapeutic dose to kill […]
impart any visible side effects.
4) Legends for Figure 2 are mislabeled.
Response: We thank the reviewer for pointing this out. We have rectified this in the revised […]
5) What is the subsrate in the helicase assay. Have the authors explored RNA secondary (e.g. G-quadruplex or hairpin structures)? […]
10) Figure 7. Please add a quantification of cell death. […]

[4] = system: TCF4 activity in A549 cells; experiment: TCF reporter assay (TOP/FOP-FLASH); assay type: cell-based, human; conditions: 0, 1, 2, and 3 μM; wild-type and β-catenin-overexpressing cells
Protocol: Transcriptional activity of TCF4 was assayed using the dual luciferase assay (Promega, Madison, WI, USA) according to the manufacturer's instructions. Briefly, 1.5 × 10^4 A549 or H1299 cells were transfected with 500 ng of TOP-FLASH and control FOP-FLASH constructs along with 50 ng of phRL Renilla constructs as transfection controls as well as with 500 ng β-catenin constructs when indicated. Cells were cultured for 24 h and then lysed in passive lysis buffer. Luminescence was detected using a luminometer (Berthold Sirius, Oak Ridge, TN, USA). Relative TCF4 promoter activity was calculated by dividing firefly luminescence by Renilla luminescence, and then normalized TOP-FLASH was divided by normalized FOP-FLASH, which was finally normalized to vector or DMSO control cells. All experiments were repeated three times, and differences were assessed by the paired t-test.

Substance: diimidazo[4,5-d:4′,5′-f]-[1,3]diazepine [RK-33]
- Ki67 positive cells in lung tumors ([1]; RK-33 and radiation treatment): decrease in Ki67 positive cells
- enhancement of the radiation effect (tumor volume by micro-CT) ([1]; i.p. RK-33 with 15-Gy SABR, 1 week after treatment): 3.7 fold
- radiation sensitization relative to that caused by carboplatin ([1]; with SABR): 1.5 fold
- sensitization to γ-radiation (A549 cells): sensitized A549 cells to γ-radiation
- decrease in tumor growth, RK-33 and radiation versus radiation [2]: not significant
- single agent activity [3]: delayed tumor growth
- TCF activity [4]: reduced TCF activity significantly
